According to patent US8871280B1, “Compositions and methods for treating fungal activity in plants or soil” (The United States of America, as represented by the …, priority 2011, dated 2014):

Assays:
[1] = tested on: Rhizoctonia solani; assay: Fungicidal vs fungistatic potential (regrowth of mycelial plugs on fresh PDA, 7 days); format: cell-based, Rhizoctonia solani AG-4, isolate Rs 23A; details: in vitro, fumigation and contact, all concentrations tested
Method: The fungicidal and fungistatic potential of the PEs were determined by the method described by Garber and Houstan (Garber R. H., and B. R. Houston, Phytopathology, 49: 449-450 (1959)). In brief, three 5 mm diameter plugs were taken from the peripheral mycelial growth from each plate and placed in a fresh PDA plate. Following incubation at room temperature for 7 days, observations were recorded for new mycelial growth (fungistatic) or no mycelial growth (fungicidal). As control, peripheral mycelial plugs from soybean oil amended PDA plates were checked for fresh mycelial growth in fresh PDA plates.

[2] = tested on: Rhizoctonia solani; assay: Poison food technique (contact action), mycelial growth inhibition in PDA; format: cell-based, Rhizoctonia solani AG-4, isolate Rs 23A; details: for PoisonB1 % inhibition: poison bed experiment 1; for PoisonB2 % inhibition: poison bed experiment 2
Method: (§1) Fungal isolate and preparation of inoculum: Rhizoctonia solani AG-4, isolate Rs 23A is a highly virulent pathogenic isolate which infects many vegetables, ornamentals and turfgrasses (Lewis, J. A., and G. C. Papavizas, Soil Biology and Biochemistry, 9:195-201 (1987)). The fungus was grown in potato dextrose agar (PDA) plates and fungal plugs from the freshly growing mycelium were mixed with moist sterilized cracked wheat in a 2 L flask for 15 days in dark at 22° C. (Lakshman, D. K., et al., Proceedings of the National Academy of Science, USA, 95: 6425-6429 (1998)). The infested wheat was air dried in a sterile hood for 3 days, blended in a homogenizer and sieved through a mesh and stored at 2° C. before soil inoculation. A dose response of the inocula was carried out by thoroughly mixing using 0.25, 0.5, 0.75, 1.0, 1.25 and 1.50 g inoculums per Kg dry weight potting soil plus sterile water to maintain 25-30% moisture and incubating at room temperature for two weeks before sowing cucumber (cv muncher) seeds with the infested soil. The percent germination and post-emergence damping off of cucumber seedlings were recorded. The lowest inoculums dose that induced 100% postemergence damping off was estimated to be 1 to 1.25 g/Kg soil for inocula prepared over the span of the experiments. For soil fumigation with plant extracts (PEs), each time the minimum inoculum dose giving rise to 100% damping off was used.
In vitro bioassays: Two in vitro bioassay methods were used to investigate the mycelial growth inhibitory potentials of PEs. In the poison food technique, test chemical/plant extract was mixed at concentrations of 15, 30, 45, 60, 75, and 150 μl per 20 ml autoclaved PDA at 50° C., poured on three sterile disposable plastic plates (100×15 mm, Fisherbrand) at 20 ml/plate and cooled to room temperature to solidify (Dhingra, O.D., and J. B. Sinclair, 1995, Basic Plant Pathology Methods, 2nd Edition, Lewis Publishers, Boca Raton and London). […] Each plate was seeded in the center with a 5 mm diameter agar disk of the freshly grown Rhizoctonia pathogen, mycelial side facing the medium, and sealed with stretched Parafilm® M (Fisher Scientific). The plates were incubated in the dark at room temperature and when the pathogen reached to the edge of the plates in the control treatment (soybean oil), radial measurement of fungal growth in plates treated with PEs were recorded by taking three measurements from each plate. The experiment was repeated one more time. The percent mycelial growth inhibition (MGI) due to PE was calculated using the following formula: […] where dc=Avg. radial growth in mm of pathogen in control plate; dt=avg. radial growth in mm of pathogen in treated plate.

[3] = tested on: Rhizoctonia solani; assay: Greenhouse suppression of damping off of cucumber seedlings in R. solani infested soil amended with plant extract; format: in vivo, Rhizoctonia solani AG-4, isolate Rs 23A; details: for % Disease suppression (+ PE + R. solani): cucumber damping off, soil amendment at 0.3% (v/w), four weeks after sowing
[4] = tested on: Rhizoctonia solani; assay: Filter disk fumigation method, mycelial growth inhibition on PDA; format: cell-based, Rhizoctonia solani AG-4, isolate Rs 23A; details: for Fumig1 % inhibition: fumigation experiment 1; for Fumig2 % inhibition: fumigation experiment 2
Method: as §1
In the second protocol, the chemical was kept not in direct contact with the fungus and we hypothesized that the plant extract will most likely influence the growth of the pathogen by fumigation action. In this approach, three sterile 15 mm filter paper (Whatman International Ltd, Maidstone, UK) disks were placed on the edge of each of three plates on the PDA. Each disk was impregnated in the center with various amounts (5-50 ul/disk) of the test solution/suspension. For negative control, only soybean oil was placed in the filter disk. […] The average radial growth was calculated and the experiment was repeated one more time. Percent growth inhibition was calculated as reported for poison bed assay.

[5] = tested on: cucumber seeds; assay: Greenhouse assay of seed germination and phytotoxicity, soil treated with plant extract alone; details: cucumber, in vivo, 0.3 % of PE in soil (3000 ppm)
Method: Soil treatment: For each treatment, 300 g of dry greenhouse soli (Pro-mix, Premier Horticulture LTD, Red Hill, Pa.) was thoroughly mixed with Rhizoctonia inoculum and incubated for 15 days as described above. […] The infested soil treated with only the carrier solution served as an untreated control. Following the treatment, the soil was thoroughly stirred to mix the contents and incubated in a double polythene bag closed tightly in the dark at room temperature for four days for fumigation to occur. Following the incubation, the bag was opened to allow as much PE to dissipate as possible. This was done by sprinkling the surface soil with sterile water every other day, and stirring the soil once every day for seven days. For assay of effect on seed germination and phytotoxicity of the plant extracts, soil was treated with plant extract formulations alone.
Greenhouse studies: Treated soil from each treatment was distributed to 4-inch plastic pots into which 12 seeds of cucumbers (95-100% germination) were sown and lightly watered to keep soil moist. The treatments were color coded and pots were randomized across treatment. All plants were kept in a greenhouse between 20° C. (night) to 26° C. (day) with 14 h of light. There were three pots per treatment in each experiment, and the experiment was repeated three times. As positive control, a broad spectrum popular soil fungicide Banrot® 40 WP (The Scotts Company, Ohio) was used following manufacturer's recommendation to control the disease. Total number of seedlings without any sign of damping off in each pot was recorded and percentage of disease suppression were calculated four weeks after sowing cucumber seeds.

## C=CCN=C=S [Allyisothiocynate]
[1]
  Fungicidal vs fungistatic nature at all concentrations tested: fungicidal
[2]; in vitro, PDA
  Inhibition of R. solani growth by contact (poison bed assay), in words: potent inhibitors
[3]
  % Disease suppression (+ PE + R. solani): 88.92%
[4]; in vitro, filter disk
  Inhibition of R. solani growth by fumigation action, in words: potent inhibitors

## C=CCN=C=S [Allylisothiocyanate]
[2]; amount oil 15 μL/20 mL plate
  PoisonB1 % inhibition: 100%
  PoisonB2 % inhibition: 100%
[2]; amount oil 30 μL/20 mL plate
  PoisonB1 % inhibition: 100%
  PoisonB2 % inhibition: 100%
[2]; amount oil 45 μL/20 mL plate
  PoisonB1 % inhibition: 100%
  PoisonB2 % inhibition: 100%
[2]; amount oil 60 μL/20 mL plate
  PoisonB1 % inhibition: 100%
  PoisonB2 % inhibition: 100%
[2]; amount oil 75 μL/20 mL plate
  PoisonB1 % inhibition: 100%
  PoisonB2 % inhibition: 100%
[2]; amount oil 150 μL/20 mL plate
  PoisonB1 % inhibition: 100%
  PoisonB2 % inhibition: 100%
[4]; amount oil 15 μL/20 mL plate
  Fumig1 % inhibition: 100%
  Fumig2 % inhibition: 100%
[4]; amount oil 30 μL/20 mL plate
  Fumig1 % inhibition: 100%
  Fumig2 % inhibition: 100%
[4]; amount oil 45 μL/20 mL plate
  Fumig1 % inhibition: 100%
  Fumig2 % inhibition: 100%
[4]; amount oil 60 μL/20 mL plate
  Fumig1 % inhibition: 100%
  Fumig2 % inhibition: 100%
[4]; amount oil 75 μL/20 mL plate
  Fumig1 % inhibition: 100%
  Fumig2 % inhibition: 100%
[4]; amount oil 150 μL/20 mL plate
  Fumig1 % inhibition: 100%
  Fumig2 % inhibition: 100%

## C=CCc1ccc(O)c(OC)c1 [Eugenol]
[5]
  Avg. seed germination (+ PE only): 10.00
[3]
  % Disease suppression (+ PE + R. solani): 44.42%
[3]; cucumber, 12 seeds sown per pot, infested soil amended with 0.3% PE
  Avg. seed Germination (+ PE + R. solani): 5.33
